Laboratory results published in patent publication US20090081285A1, “USE OF RADICAL-CAPTURING SUBSTANCES IN A TOPICAL PREPARATION FOR ANTIPYRETIC TREATMENT” (priority 2005, published 2009).
Read-outs that look alike come from different tables or passages of the source.

Experiments:
[1] = standard antioxidants, RPF stated as well-known; cited from earlier work
[2] = Radical protection factor (RPF) by electron spin resonance (ESR); format: physicochemical; conditions: in vitro
Description: wherein RF=(S1−S2)/S1; RC=concentration of test substance (radicals/ml); PI=concentration of active substance preparation (mg/ml); S2=signal amplitude of a solution of antioxidant. The radical protection factor is preferably 800×10^14 radicals per mg of preparation, more preferably 30,000×10^14 radicals per mg of preparation.
The radical protection factor (RPF) indicates the activity in binding free radicals by an antioxidant or radical scavenger compared to a test substance.
As set forth above, the radical protection factor (RPF) determines the activity of a substance for binding free radicals as compared with a test substance. The test substance consists of a highly reactive, semi-stable radical which reacts with all known antioxidants. Such radicals include nitroxides such as Proxo (2,2,5,5-tetramethyl-1-dihydropyrrolinoxy nitroxide), Tempol (2,2,6,6-tetramethyl-1-piperidinoxy-4-ol nitroxide), DTBN (di-tert-butyl-nitroxide) or preferably DPPH (1,1-diphenyl-2-picryl-hydrazyl).
The RPF is measured in such a way that the signal amplitude of the test radical is measured by electron spin resonance (ESR/EPR) before and after mixing with an antioxidant/radical scavenger and calculating the RPF therefrom. For a series of standard antioxidants the RPF is well-known.
Ind. […] Starting from the known concentration of test substance (here: DPPH) or the number of its free radicals (radicals per ml), a signal amplitude S1 is measured using an ESR spectrometer. Both test radical and antioxidant are dissolved in a water/alcohol solution (e.g. 0.1 M). Thereafter, the signal amplitude S2 of the antioxidant is measured. The normalized difference between the two signal amplitudes is the reduction factor RF.
The result of the radical reduction of the test substance RC×RF is normalized relative to the quantity of product input PI (mg/ml). RC is the amount of the test substance, i.e., the known number of radicals in the test substance. The radical protection factor is calculated by means of the following equation:
RPF=N×10^14[radicals per mg],
wherein N is a positive real number and RPF for simplification may be reduced to the numerical value of N. This reduction will be used in the examples of the present invention.
The radical protection factor can be determined using an ESR spectrometer (GALENUS GmbH, Berlin, Germany) and is a magnitude for characterizing products with respect to their capability of binding free radicals. The method is an in vitro method in which no individual properties of the user would influence the antioxidants.

[3] = radical scavenger raw materials

| Compound | radical protection factor (RPF) [1] | radical protection factor (RPF) [2, 3] | also measured |
| --- | --- | --- | --- |
| Cc1c(C)c2c(c(C)c1O)CCC(C)(CCCC(C)CCCC(C)CCCC(C)C)O2 (racemic) [DL-α-tocopherol] | 41,200 ×10^14 radicals/mg |  |  |
| CC(=O)OC/C=C(C)/C=C/C=C(C)/C=C/C1=C(C)CCCC1(C)C [all-trans-retinol acetate] | 196 ×10^14 radicals/mg |  |  |
| CC1=C(/C=C/C(C)=C/C=C/C(C)=C/CO)C(C)(C)CCC1 [all-trans-retinol] | 827 ×10^14 radicals/mg |  |  |
| O=C(/C=C/c1ccc(O)c(O)c1)O[C@H](Cc1ccc(O)c(O)c1)C(=O)O [rosmarinic acid] |  | 36,000-68,000 ×10^14 radicals/mg |  |
| O=C1O[C@H]([C@@H](O)CO)C([O-])=C1OP(=O)([O-])[O-].[Na+].[Na+].[Na+] [sodium ascorbyl phosphate] |  | 35,000 ×10^14 radicals/mg |  |
| O=C(OC[C@H]1O[C@@H](OC(=O)c2cc(O)c(O)c(OC(=O)c3cc(O)c(O)c(O)c3)c2)[C@H](OC(=O)c2cc(O)c(O)c(OC(=O)c3cc(O)c(O)c(O)c3)c2)[C@@H](OC(=O)c2cc(O)c(O)c(OC(=O)c3cc(O)c(O)c(O)c3)c2)[C@@H]1OC(=O)c1cc(O)c(O)c(OC(=O)c2cc(O)c(O)c(O)c2)c1)c1cc(O)c(O)c(OC(=O)c2cc(O)c(O)c(O)c2)c1 [tannic acid] |  | 310,000 ×10^14 radicals/mg |  |
| CC(=O)Oc1c(C)c(C)c2c(c1C)CCC(C)(CCC[C@H](C)CCC[C@H](C)CCCC(C)C)O2 (stereo partly drawn) [α-tocopheryl acetate] | about 48 ×10^14 radicals/mg |  |  |
| cyclodextrins |  |  | radical protection factor (RPF) ([2]; printed without unit (b55-56: RPF=N×10^14 radicals per mg, reduced to N)): 0 |
